Measured values as given in US5948764A, “Methods for treatment of multiple sclerosis utilizing peptide analogues of human myelin basic protein” (Neurocrine Biosciences, Inc., priority 1997, dated 1999).
Where a SMILES comes first, the peptide text is derived from it. [ ]: non-standard residue; d: D form.

Assays:
[1] = system: EAE; details: single 250 μg dose in CFA, pertussis toxin i.v. day 0 and 2
Method: Similarly, mice are injected with a single, 250 μg dose of MBP (87-99) or A97 in CFA containing 500 μg of heat killed Mycobacterium. Pertussis toxin (400 ng/mouse) is injected i.v. at day 0 and day 2. Mice are assessed for disease symptoms as described above.

[2] = system: EAE; details: rat, in vivo
[3] = system: lymph node cells from MBP 87-99 immunized rats; experiment: Antigen-specific lymph node cell proliferation, MBP 87-99 immunized rats; format: cell-based, Lewis rats; details: FIG. 3B, separate experiment
Method: Within the second assay, draining lymph node cells from Lewis rats or SJL mice injected with MBP (87-99) may be used. Preferably, this assay is used in combination with the proliferation assay using T cell lines. Briefly, Lewis rats or SJL mice are injected subcutaneously with MBP (87-99) peptide in complete Freund's adjuvant. Nine to ten days later, draining lymph node cells are isolated and single-cell suspensions are prepared. Lymph node cells are incubated with various concentrations of peptide analogues for three days in a humidified air chamber containing 6.5% CO2. After incubation, the cultures are pulsed with 1-2 μCi of [^3 H]-thymidine for 12-18 hours. Cultures are harvested on fiberglass filters and counted in a scintillation counter. Mean CPM and the standard error of the mean are calculated from data determined in triplicate cultures. […] Peptide analogues which are suitable for further screening will preferably, at concentrations of at least 10 μM, cause stimulation to a level of at least 25% of the native peptide.
Female Lewis rates, approximately six weeks old, are purchased from Harlan Sprague, Indianapolis, Ind. MBP peptides are dissolved in phosphate-buffered saline (PBS) and emulsified with an equal volume of complete Freund's adjuvant (Difco Laboratories, Inc., Detroit, Mich.) supplemented with 2 mg/ml of heat-killed Mycobacterium tuberculosis H37Ra in oil (Difco). […]

[4] = system: Murine MBP-specific T cell clones (AG.1H8); experiment: Proliferation of murine MBP-specific T cell clone AG.1H8; format: cell-based; details: 72 hr, [3H]-thymidine
Method: Murine MBP-specific T cell clones were also used as targets in proliferation assays. T cell clones (30,000 cells) were cultured for 72 hr in the presence of MBP 87-99, A97, or PLP 139-151 (myelin proteolipid protein), and irradiated, syngeneic spleen cells. For 18 hr prior to harvesting, [^3 H]-thymidine was added to each culture. Incorporated thymidine was determined.

[5] = system: IL-2 stimulated T cell line reactive to MBP 87-99; experiment: Cytokine production by MBP 87-99 reactive T cell line (ELISA); format: cell-based, SJL; details: 48 hr; 10 μM PLP 139-151, 3 μM A97 or 3 μM MBP 87-99
Method: Other suitable assays of antigen-specific T cell responses include induction of cytokine production, phosphorylation of the CD3 zeta chain, and induction of apoptosis. Briefly, for assaying cytokine production, an IL-2-stimulated T cell line, which is reactive to MBP […], is incubated with IL-2 and various MBP peptide analogues. Cytokine release is measured at 48 hr. Cytokines are measured by ELISA, or alternatively, RNA expression of cytokines may be measured by Northern blot, RNase probe protection or other standard hybridization methods. Cytokines to be assayed include IL-1 through IL-14, γ-IFN, TNF, and the like. Phosphorylation of the CD3 zeta chain is assayed in MBP 87-89-specific T cells. Briefly, cells are co-incubated with antigen-presenting cells, such as T-depleted splenocytes, which have been pulsed with MBP 87-99 or peptide analogue. Cells are then lysed, and the zeta chain is immunoprecipitated and electrophoresed on an SDS-PAGE gel. The […] may be detected with an antibody. In a third assay, apoptosis may be induced in an antigen-specific manner. For this assay, an MBP stimulated T cell line is incubated with IL-2 and various peptides. Cell loss is measured by flow cytometry or other standard method.
Cytokine production by an IL-2 stimulated T cell line, which is reactive to MBP 87-99, is measured in response to various peptides and peptide analogues. The activated T cell line is co-cultured for 48 hr with a 10-fold excess of irradiated (3000 Rads) SJL T cell-depleted spleen cells, 50 IU/ml human rIL-2 and 10 μM PLP 139-151, 3 μM A97, or 3 μM MBP 87-99. Cytokine release is measured by ELISA.

[6] = system: multiple sclerosis; details: in vivo; cited from earlier work

CC[C@H](C)[C@H](NC(=O)[C@H](CC(N)=O)NC(=O)[C@H](CCCCN)NC(=O)[C@H](Cc1ccccc1)NC(=O)[C@H](Cc1ccccc1)NC(=O)[C@H](Cc1c[nH]cn1)NC(=O)[C@@H](NC(=O)[C@@H](N)C(C)C)C(C)C)C(=O)N[C@H](C(=O)N[C@H](C(=O)N1CCC[C@H]1C(=O)N[C@@H](C)C(=O)N[C@H](C(=O)N1CCC[C@H]1C(=O)O)[C@@H](C)O)[C@@H](C)O)C(C)C [A97] (H-VVHFFKNIVTPATP-OH)
animals developing disease [1]: 5/5
mean clinical score following injection ([1]; FIG. 11): increased mean clinical score

CC[C@H](C)[C@H](NC(=O)[C@H](CC(N)=O)NC(=O)[C@H](CCCCN)NC(=O)[C@H](Cc1ccccc1)NC(=O)[C@H](Cc1ccccc1)NC(=O)[C@@H](Cc1c[nH]cn1)NC(=O)[C@@H](NC(=O)[C@@H](N)C(C)C)C(C)C)C(=O)N[C@H](C(=O)N[C@H](C(=O)N1CCC[C@H]1C(=O)N[C@@H](CCCNC(=N)N)C(=O)N[C@H](C(=O)N1CCC[C@H]1C(=O)O)[C@@H](C)O)[C@@H](C)O)C(C)C [h88] (H-VV[dH]FFKNIVTPRTP-OH)
induction of EAE [2]: does not induce EAE in rats

CC[C@H](C)[C@H](NC(=O)[C@@H]1CCCN1C(=O)[C@@H](NC(=O)[C@@H](N)Cc1ccccc1)C(C)C)C(=O)N[C@@H](Cc1ccccc1)C(=O)N[C@H](C(=O)N[C@@H](Cc1ccc(O)cc1)C(=O)NCC(=O)N[C@@H](CCC(=O)O)C(=O)N[C@@H](CC(C)C)C(=O)N[C@@H](CCC(N)=O)C(=O)N[C@@H](CCCNC(=N)N)C(=O)N[C@@H](CCSC)C(=O)N[C@@H](CCC(N)=O)C(=O)N[C@@H](CCC(=O)O)C(=O)N[C@@H](CCCCN)C(=O)N[C@@H](CCC(=O)O)C(=O)N[C@@H](CCCNC(=N)N)C(=O)N[C@@H](CC(N)=O)C(=O)N[C@@H](CCCCN)C(=O)NCC(=O)N[C@@H](CCC(N)=O)C(=O)O)[C@@H](C)O [motlin]
proliferative response of lymph node cells [3]: not

PLP 139-151: myelin proteolipid protein peptide 139-151, control peptide (CHCLGKWLGHPDK; UniProt P60202 139-151, looked up, fragment)
Proliferation ([4]; 10 μM peptide): 0.15 ± 0.03 CPM × 10^-3
Proliferation ([4]; 50 μM peptide): 0.26 ± 0.12 CPM × 10^-3
IL-2 release [5]: 1646 pg/mL
IL-4 release [5]: 2197 pg/mL
γ-IFN release [5]: 3073 pg/mL

B1: IFN-γ: cytokine administered in a pilot study in MS (protein, UniProt P01579 24-161, looked up)
Interferon gamma: QDPYVKEAENLKKYFNAGHSDVADNGTLFLGILKNWKEESDRKIMQSQIVSFYFKLFKNFKDDQSIQKSVETIKEDMNVKFFNSNKKKRDDFEKLTNYSVTDLNVQRKAIHELIQVMAELSPAAKTGKRKRSQMLFRG
patients with a clinical exacerbation [6]: 7 of 18
